# Measured values reported in patent publication US11759455B2, “Substituted 1H-imidazo[4,5-b]pyridin-2(3H)-ones and their use as GLUN2B receptor modulators” (JANSSEN PHARMACEUTICA NV, priority 2016, dated 2023).
# Read-outs that look alike come from different tables or passages of the source.
# Target: T1, human GluN1/GluN2B NMDA receptors (Homo sapiens, UniProt Q13224)
# T1 construct: expressed in transfected cells
# Test: Cell-based calcium flux (FLIPR) assay on cloned human NR1/NR2B ion channels expressed in mammalian cells (standard and HTS buffer variants);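 note: stable Tet-On inducible cell line, Ca2+ influx triggered by glutamate at about EC40 plus 10 µM glycine, fluorescent dye read-out over 5 min, normalized to control wells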
# [1] = standard assay buffer (0.5 mM MgCl2 in dye loading buffer; 137 mM NaCl, 4 mM KCl in assay buffer), human GluN1/GluN2B, read-out: NR2B IC50 (μM) standard assay
# [2] = standard assay buffer (0.5 mM MgCl2 dye loading; 137 mM NaCl, 4 mM KCl assay buffer), human GluN1/GluN2B cells, read-out: NR2B IC50 (μM) standard assay
# [3] = HTS assay buffer (1.5 mM MgCl2 in dye loading buffer; 150 mM NaCl, 3 mM KCl in assay buffer), human GluN1/GluN2B, read-out: NR2B IC50 (μM) HTS assay
# [4] = HTS assay buffer (1.5 mM MgCl2 dye loading; 150 mM NaCl, 3 mM KCl assay buffer), human GluN1/GluN2B cells, read-out: NR2B IC50 (μM) HTS assay
# T1 sequence (Q13224 27-1484, other chains not shown): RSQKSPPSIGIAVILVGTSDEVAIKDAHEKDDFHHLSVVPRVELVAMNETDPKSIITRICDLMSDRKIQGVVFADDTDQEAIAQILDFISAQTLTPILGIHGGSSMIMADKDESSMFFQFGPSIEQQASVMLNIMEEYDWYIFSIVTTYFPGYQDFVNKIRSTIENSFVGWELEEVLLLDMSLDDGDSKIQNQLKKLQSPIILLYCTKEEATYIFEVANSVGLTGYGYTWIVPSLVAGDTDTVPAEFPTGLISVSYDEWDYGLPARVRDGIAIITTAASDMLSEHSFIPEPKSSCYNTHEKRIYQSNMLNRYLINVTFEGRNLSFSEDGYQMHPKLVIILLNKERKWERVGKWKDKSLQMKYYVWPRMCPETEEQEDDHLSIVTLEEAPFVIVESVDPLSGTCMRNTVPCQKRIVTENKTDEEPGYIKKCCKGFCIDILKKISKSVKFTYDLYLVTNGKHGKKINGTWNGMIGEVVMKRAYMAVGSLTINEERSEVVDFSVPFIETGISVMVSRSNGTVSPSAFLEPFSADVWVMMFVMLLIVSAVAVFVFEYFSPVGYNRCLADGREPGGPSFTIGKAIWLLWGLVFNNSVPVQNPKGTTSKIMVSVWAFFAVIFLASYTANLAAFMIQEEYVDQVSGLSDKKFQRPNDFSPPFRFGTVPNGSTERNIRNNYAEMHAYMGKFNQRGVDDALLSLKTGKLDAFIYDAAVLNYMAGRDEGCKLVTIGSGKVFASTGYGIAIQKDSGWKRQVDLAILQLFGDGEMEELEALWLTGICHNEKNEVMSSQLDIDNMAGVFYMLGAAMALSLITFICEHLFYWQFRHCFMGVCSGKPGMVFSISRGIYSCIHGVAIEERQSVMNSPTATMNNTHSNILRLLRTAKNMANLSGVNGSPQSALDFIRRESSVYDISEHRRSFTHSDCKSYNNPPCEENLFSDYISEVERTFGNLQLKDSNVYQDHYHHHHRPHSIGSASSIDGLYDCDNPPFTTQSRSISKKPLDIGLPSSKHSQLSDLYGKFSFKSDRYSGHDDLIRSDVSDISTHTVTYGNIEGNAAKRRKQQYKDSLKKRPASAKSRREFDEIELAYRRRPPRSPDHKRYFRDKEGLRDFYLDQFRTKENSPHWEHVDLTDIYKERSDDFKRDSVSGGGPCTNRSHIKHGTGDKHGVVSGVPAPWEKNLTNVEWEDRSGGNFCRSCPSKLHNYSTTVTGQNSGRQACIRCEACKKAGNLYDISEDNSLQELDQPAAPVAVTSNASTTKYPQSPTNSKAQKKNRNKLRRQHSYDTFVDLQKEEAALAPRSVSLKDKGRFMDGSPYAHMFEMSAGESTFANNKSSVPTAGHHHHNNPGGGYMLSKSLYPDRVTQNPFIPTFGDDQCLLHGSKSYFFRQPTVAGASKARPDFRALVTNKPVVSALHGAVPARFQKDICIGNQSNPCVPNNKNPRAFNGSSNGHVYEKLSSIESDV
smiles,measurement,setting,value
"Cc1c(F)ccc(-c2cnc3c(c2)n(Cc2cncc(Cl)c2)c(=O)n3C)c1F [Example 368, 1-[(5-Chloro-3-pyridyl)methyl]-6-(2,4-difluoro-3-methyl-phenyl)-3-methyl-imidazo[4,5-b]pyridin-2-one]",IC50,[1],0.356 µM
"Cn1ccc(Cn2c(=O)[nH]c3ncc(-c4ccc(F)cc4F)cc32)n1 [Example 132, 6-(2,4-Difluorophenyl)-1-[(1-methylpyrazol-3-yl)methyl]-3H-imidazo[4,5-b]pyridin-2-one]",IC50,[2],6.76 µM
"Cn1c(=O)n(CC(=O)N2CCC2)c2cc(-c3ccc(C(F)F)s3)cnc21 [Example 93, 1-[2-(Azetidin-1-yl)-2-oxo-ethyl]-6-[5-(difluoromethyl)-2-thienyl]-3-methyl-imidazo[4,5-b]pyridin-2-one]",IC50,[2],0.006 µM
"O=C(Cn1c(=O)[nH]c2ncc(-c3cccc(C(F)(F)F)c3)cc21)NC1CCC1 [Example 190, N-Cyclobutyl-2-[2-oxo-6-[3-(trifluoromethyl)phenyl]-3H-imidazo[4,5-b]pyridin-1-yl]acetamide]",IC50,[2],0.07 µM
"CN(C)C(=O)Cn1c(=O)[nH]c2ncc(-c3ccc(C(F)(F)F)s3)cc21 [Example 26, N,N-Dimethyl-2-[2-oxo-6-(5-(trifluoromethyl)-2-thienyl]-3H-imidazo[4,5-b]pyridin-1-yl)acetamide]",IC50,[2],0.012 µM
"O=c1[nH]c2ncc(-c3cccc(C(F)(F)F)c3)cc2n1CCNC1CCC1 [Example 150, 1-[2-(Cyclobutylamino)ethyl]-6-[3-(trifluoromethyl)phenyl]-3H-imidazo[4,5-b]pyridin-2-one]",IC50,[2],0.277 µM
"COc1ccc(-c2cnc3[nH]c(=O)n(Cc4cccc(C#N)c4)c3c2)cc1 [Example 477, 3-[[6-(4-Methoxyphenyl)-2-oxo-3H-imidazo[4,5-b]pyridin-1-yl]methyl]benzonitrile]",IC50,[3],3.16 µM
"Cn1c(=O)n(Cc2cncc(Cl)c2)c2cc(-c3ccc(F)c(F)c3)cnc21 [Example 369, 1-[(5-Chloro-3-pyridyl)methyl]-6-(3,4-difluorophenyl)-3-methyl-imidazo[4,5-b]pyridin-2-one]",IC50,[1],0.096 µM
"Cn1c(=O)n(CC(=O)NC2(C)CC(F)(F)C2)c2cc(-c3cccc(C(F)(F)F)c3)cnc21 [Example 198, N-(3,3-Difluoro-1-methyl-cyclobutyl)-2-[3-methyl-2-oxo-6-[3-(trifluoromethyl)phenyl]imidazo[4,5-b]pyridin-1-yl]acetamide]",IC50,[2],5.01 µM
"Cc1cc(-c2cnc3c(c2)n(CC(=O)N(C)C)c(=O)n3C)ccc1F [Example 420, 2-[6-(4-Fuoro-3-methyl-phenyl)-3-methyl-2-oxo-imidazo[4,5-b]pyridin-1-yl]-N,N-dimethyl-acetamide]",IC50,[1],0.017 µM
"COc1ccc(-c2cnc3[nH]c(=O)n(CC(=O)N(C)C4CC4)c3c2)cc1 [Example 41, N-Cyclopropyl-2-[6-(4-methoxyphenyl)-2-oxo-3H-imidazo[4,5-b]pyridin-1-yl]-N-methyl-acetamide]",IC50,[4],8.72 µM
"CN(C)C(=O)Cn1c(=O)n(C)c2ncc(-c3cccc(C(F)F)c3)cc21 [Example 426, 2-[6-[3-(Difluoromethyl)phenyl]-3-methyl-2-oxo-imidazo[4,5-b]pyridin-1-yl]-N,N-dimethyl-acetamide]",IC50,[1],0.019 µM
"Cc1cc(-c2cnc3c(c2)n(Cc2ncccn2)c(=O)n3C)ccc1F [Example 49, 6-(4-Fluoro-3-methyl-phenyl)-3-methyl-1-(pyrimidin-2-ylmethyl)imidazo[4,5-b]pyridin-2-one]",IC50,[2],0.486 µM
"Cc1cc(-c2cnc3c(c2)n(Cc2cccnc2)c(=O)n3C)ccc1F [Example 45, 6-(4-Fluoro-3-methyl-phenyl)-3-methyl-1-(3-pyridylmethyl)imidazo[4,5-b]pyridin-2-one]",IC50,[2],0.038 µM
"Cc1ccc(-c2cnc3[nH]c(=O)n(Cc4ccccn4)c3c2)cc1 [Example 289, 6-(p-Tolyl)-1-(2-pyridylmethyl)-3H-imidazo[4,5-b]pyridin-2-one]",IC50,[2],7.08 µM
"Cc1cc(F)ccc1-c1cnc2[nH]c(=O)n(CCN3CC(F)C3)c2c1 [Example 187, 1-[2-(3-Fluoroazetidin-1-yl)ethyl]-6-(4-fluoro-2-methyl-phenyl)-3H-imidazo[4,5-b]pyridin-2-one]",IC50,[2],1.19 µM
"CN(C)C(=O)Cn1c(=O)n(C)c2ncc(-c3cccc(F)c3F)cc21 [Example 425, 2-[6-(2,3-Difluorophenyl)-3-methyl-2-oxo-imidazo[4,5-b]pyridin-1-yl]-N,N-dimethyl-acetamide]",IC50,[1],0.408 µM
"O=C(Cn1c(=O)n(CF)c2ncc(-c3ccc(C(F)(F)F)s3)cc21)N1CCCC1 [Example 598, 3-(Fluoromethyl)-1-(2-oxo-2-pyrrolidin-1-yl-ethyl)-6-[5-(trifluoromethyl)-2-thienyl]imidazo[4,5-b]pyridin-2-one]",IC50,[1],0.173 µM
"Cn1c(=O)n(CC(=O)N2CCC2)c2cc(-c3cccc(C(F)(F)F)c3)cnc21 [Example 408, 1-[2-(Azetidin-1-yl)-2-oxo-ethyl]-3-methyl-6-[3-(trifluoromethyl)phenyl]imidazo[4,5-b]pyridin-2-one]",IC50,[1],0.042 µM
"O=c1[nH]c2ncc(-c3ccccc3)cc2n1CCN1CCC1 [Example 153, 1-[2-(Azetidin-1-yl)ethyl]-6-phenyl-3H-imidazo[4,5-b]pyridin-2-one]",IC50,[2],0.283 µM
"O=c1[nH]c2ncc(-c3cccc(Cl)c3)cc2n1Cc1cncc(F)c1 [Example 305, 6-(3-Chlorophenyl)-1-[(5-fluoro-3-pyridyl)methyl]-3H-imidazo[4,5-b]pyridin-2-one]",IC50,[2],0.013 µM
"Cc1noc(Cn2c(=O)n(C)c3ncc(-c4cccc(C(F)(F)F)c4)cc32)n1 [Example 76, 3-Methyl-1-[(3-methyl-1,2,4-oxadiazol-5-yl)methyl]-6-[3-(trifluoromethyl)phenyl]imidazo[4,5-b]pyridin-2-one]",IC50,[2],0.218 µM
"O=c1[nH]c2ncc(-c3cc(F)cc(F)c3)cc2n1CCN1CCC1 [Example 159, 1-[2-(Azetidin-1-yl)ethyl]-6-(3,5-difluorophenyl)-3H-imidazo[4,5-b]pyridin-2-one]",IC50,[2],0.211 µM
"Cc1c(-c2cnc3[nH]c(=O)n(CCN4CC(F)C4)c3c2)cccc1C(F)(F)F [Example 181, 1-[2-(3-Fluoroazetidin-1-yl)ethyl]-6-[2-methyl-3-(trifluoromethyl)phenyl]-3H-imidazo[4,5-b]pyridin-2-one]",IC50,[2],9.35 µM
"Cn1c(=O)n(Cc2cccnn2)c2cc(-c3cccc(C(F)F)c3)cnc21 [Example 377, 6-[3-(Difluoromethyl)phenyl]-3-methyl-1-(pyridazin-3-ylmethyl)imidazo[4,5-b]pyridin-2-one]",IC50,[1],0.03 µM
"O=C(Cn1c(=O)n(CCF)c2ncc(-c3ccc(C(F)(F)F)s3)cc21)N1CCC1 [Example 535, 1-[2-(Azetidin-1-yl)-2-oxo-ethyl]-3-(2-fluoroethyl)-6-[5-(trifluoromethyl)-2-thienyl]imidazo[4,5-b]pyridin-2-one]",IC50,[1],0.106 µM
"CN(CCF)C(=O)Cn1c(=O)n(C)c2ncc(-c3ccc(C(F)(F)F)s3)cc21 [Example 577, N-(2-Fluoroethyl)-N-methyl-2-[3-methyl-2-oxo-6-[5-(trifluoromethyl)-2-thienyl]imidazo[4,5-b]pyridin-1-yl]acetamide]",IC50,[1],0.064 µM
"COc1ncccc1Cn1c(=O)[nH]c2ncc(-c3cccc(C(F)(F)F)c3)cc21 [Example 22, 1-[(2-Methoxy-3-pyridyl)methyl]-6-[3-(trifluoromethyl)phenyl]-3H-imidazo[4,5-b]pyridin-2-one]",IC50,[2],26.7 µM
"Cn1c(=O)n(CC(=O)N2CCC2)c2cc(-c3csc(C(F)F)c3)cnc21 [Example 98, 1-[2-(Azetidin-1-yl)-2-oxo-ethyl]-6-[5-(difluoromethyl)-3-thienyl]-3-methyl-imidazo[4,5-b]pyridin-2-one]",IC50,[2],0.013 µM
"COc1ccc(-c2cnc3[nH]c(=O)n(Cc4cccc(F)c4)c3c2)cc1C [Example 498, 1-[(3-Fluorophenyl)methyl]-6-(4-methoxy-3-methyl-phenyl)-3H-imidazo[4,5-b]pyridin-2-one]",IC50,[1],2.22 µM
"O=c1[nH]c2ncc(-c3cccc(F)c3F)cc2n1Cc1cncc(F)c1 [Example 303, 6-(2,3-Difluorophenyl)-1-[(5-fluoro-3-pyridyl)methyl]-3H-imidazo[4,5-b]pyridin-2-one]",IC50,[2],0.03 µM
"Cn1c(=O)n(Cc2cccnn2)c2cc(-c3cccc(Cl)c3)cnc21 [Example 376, 6-(3-Chlorophenyl)-3-methyl-1-(pyridazin-3-ylmethyl)imidazo[4,5-b]pyridin-2-one]",IC50,[1],0.056 µM
"Cc1cc(Cn2c(=O)n(C)c3ncc(-c4ccc(C(F)(F)F)s4)cc32)no1 [Example 570, 3-Methyl-1-[(5-methylisoxazol-3-yl)methyl]-6-[5-(trifluoromethyl)-2-thienyl]imidazo[4,5-b]pyridin-2-one]",IC50,[1],0.139 µM
"Cc1cccc(-c2cnc3c(c2)n(CC(=O)N2CC(F)C2)c(=O)n3C)c1 [Example 404, 1-[2-(3-Fluoroazetidin-1-yl)-2-oxo-ethyl]-3-methyl-6-(m-tolyl)imidazo[4,5-b]pyridin-2-one]",IC50,[1],0.05 µM
"Cc1cccc(-c2cnc3c(c2)n(Cc2cncc(Cl)c2)c(=O)n3C)c1F [Example 371, 1-[(5-Chloro-3-pyridyl)methyl]-6-(2-fluoro-3-methyl-phenyl)-3-methyl-imidazo[4,5-b]pyridin-2-one]",IC50,[1],0.19 µM
"COc1ccc(-c2cnc3[nH]c(=O)n(CC(=O)N4CCCC4)c3c2)cc1 [Example 35, 6-(4-Methoxyphenyl)-1-(2-oxo-2-pyrrolidin-1-yl-ethyl)-3H-imidazo[4,5-b]pyridin-2-one]",IC50,[4],2.14 µM
"COc1cc(F)ccc1-c1cnc2[nH]c(=O)n(Cc3cccc(C#N)c3)c2c1 [Example 478, 3-[[6-(4-Fluoro-2-methoxy-phenyl)-2-oxo-3H-imidazo[4,5-b]pyridin-1-yl]methyl]benzonitrile]",IC50,[3],3.04 µM
